Results reported in article PMC3813957 (Cancer prevention research (Philadelphia, Pa.), 2013).
Read-outs that look alike come from different tables or passages of the source.

What was measured:
brain metastases = conditions: nine patients, median dose 1500 mg weekly; cited from earlier work
[1] = human, 150 mg, steady state; cited from earlier work
[2] = tested on: carcinogen-induced urinary bladder model; conditions: ref Lubet and Grubbs, unpublished data; cited from earlier work
[3] = tested on: established mammary cancers induced by methylnitrosourea; test: Therapy of established; type: in vivo, female Sprague-Dawley rats; conditions: for reduction of average tumor size: vehicle group increased 250%
[4] = cited from earlier work
[5] = Serum pharmacokinetics of erlotinib and OSI-420 after gavage; conditions: for concentration at 2 h / concentration at 4 h / concentration at 8 h / concentration at 24 h / concentration at 48 h / half-life / AUC(0-t) / Cmax / Tmax: female, Sprague-Dawley, rat, serum
[6] = tested on: methylnitrosourea-induced mammary cancers; test: Prevention of methylnitrosourea-induced mammary carcinogenesis; type: in vivo, female Sprague-Dawley rats; conditions: for reduction of final tumor multiplicity: 6 mg/kg BW
[7] = tested on: transgenic model of ER negative breast cancer; conditions: ref Lubet and Grubbs, unpublished data; cited from earlier work
[8] = tested on: phosphorylated ERKs (T202/Y204); test: Biomarker study: Western blot of phosphorylated ERK in mammary cancers; type: in vivo, female Sprague-Dawley rats
[9] = tested on: MNU-induced rat mammary cancers; conditions: varied doses; cited from earlier work
[10] = rat 42 mg/kg BW vs human 150 mg
[11] = rat effective daily dose (6 mg/kg BW) vs human
[12] = Experiment C, weekly dosing at either 42 or 21 mg/kg BW

C#Cc1cccc(Nc2ncnc3cc(OCCOC)c(OCCOC)cc23)c1 [Erlotinib]
efficacy (brain metastases): significant efficacy was observed
AUC0–24 [1]: 26500 ng·h/mL
Cmax [1]: 1740 ng/mL
Tmax [1]: 2.44 h
efficacy of weekly treatment [2]: strong efficacy
reduction of average tumor size ([3]; 6 mg/kg BW daily for 6 weeks): 40%
reduction of average tumor size ([3]; 42 mg/kg BW weekly for 6 weeks): 25%
share of mammary tumors that decreased by 60% in size ([3]; either daily (6 mg/kg BW) or weekly (42 mg/kg BW) dosing, 6 weeks): at least 50%
patients with moderate (grade 2) rash ([4]; 2000 mg/week): 42%
severe (grade 3) rash or diarrhea ([4]; weekly dosing, doses up to 2000 mg/week, any dose level): no severe (grade 3) rash or diarrhea
concentration at 2 h ([5]; oral, 6 mg/kg BW/day): 708 ± 48 ng/mL
concentration at 4 h ([5]; oral, 6 mg/kg BW/day): 427 ± 19 ng/mL
concentration at 8 h ([5]; oral, 6 mg/kg BW/day): 277 ± 102 ng/mL
concentration at 24 h ([5]; oral, 6 mg/kg BW/day): 25 ± 9 ng/mL
concentration at 48 h ([5]; oral, 6 mg/kg BW/day): 0 ng/mL
half-life ([5]; oral, 6 mg/kg BW/day, half-life, daily erlotinib (discussion)): 5 to 6 h
concentration at 2 h ([5]; oral, 42 mg/kg BW): 1350 ± 96 ng/mL
concentration at 4 h ([5]; oral, 42 mg/kg BW): 1060 ± 184 ng/mL
concentration at 8 h ([5]; oral, 42 mg/kg BW): 1590 ± 259 ng/mL
concentration at 24 h ([5]; oral, 42 mg/kg BW): 470 ± 121 ng/mL
concentration at 48 h ([5]; oral, 42 mg/kg BW): 52 ± 11 ng/mL
half-life ([5]; oral, serum half-life): ≤ 8 h
AUC(0-t) ([5]; po, 6 mg/kg): 4680 ng·h/mL
Cmax ([5]; po, 6 mg/kg): 708 ng/mL
Tmax ([5]; po, 6 mg/kg): 2 h
half-life ([5]; po, 6 mg/kg, T1/2, rat, non-compartmental): 4.61 h
AUC(0-t) ([5]; po, 42 mg/kg): 28400 ng·h/mL
Cmax ([5]; po, 42 mg/kg): 1590 ng/mL
Tmax ([5]; po, 42 mg/kg): 8 h
half-life ([5]; po, 42 mg/kg, T1/2, rat, non-compartmental): 8.06 h
AUC relative to the human dose ([5]; rat 6 mg/Kg BW vs human 150 mg): < 20%
Cmax relative to human levels ([5]; rat 6 mg/Kg BW vs human 150 mg): < 50%
AUC compared with the human [5, 10]: similar
Cmax compared with that achieved in humans [5, 10]: similar
AUC less than in the human [5, 11]: 5 ×
Cmax lower than in the human [5, 11]: approximately 60%
tumor incidence and latency ([6]; Experiment A, 6 mg/kg BW daily, one day on/one day off, or two days on/two days off, all three regimens vs controls P<.01): reductions of tumor incidence and increases in latency
reduction of final tumor multiplicity ([6]; Experiment A, 2 days on/2 days off, vs vehicle controls P<.001): 75%
reduction of final tumor multiplicity ([6]; Experiment A, intermittent dosing (both schedules)): 65–75%
tumor incidence and latency ([6]; Experiment B, 6 mg/kg BW daily, 6 mg/kg BW two days on/two days off, or 42 mg/kg BW weekly, all three vs controls P<.01): reduced tumor incidence and increased tumor latency
reduction of tumor multiplicity ([6]; Experiment B, 6 mg/kg BW daily, vs controls P<.005): 85%
tumor incidence [6, 12]: strongly inhibited
tumor multiplicity [6, 12]: strongly inhibited
preventive activity (tumor incidence and multiplicity) ([6]; initial studies, 6 mg/Kg BW/day, data not shown): highly effective
tumor incidence and multiplicity ([6]; initial studies, various daily doses up to 6 mg/kg BW/day): dose dependent decrease
decrease of tumor multiplicity ([6]; lower weekly dose 21 mg/kg BW): approximately 85%
efficacy of weekly treatment [7]: strong efficacy
phosphorylation of ERK in cancers (Western blot) ([8]; 6 mg/kg BW/day daily for 7 days): striking decrease
levels of phosphorylated ERK ([8]; rats treated daily/weekly (abstract)): strongly decreased
phosphorylated ERK in cancers (Western blot) ([8]; single weekly dose 42 mg/kg BW, examined 6 days following the treatment): strong decrease

COc1cc2ncnc(Nc3ccc(F)c(Cl)c3)c2cc1OCCCN1CCOCC1 [gefitinib]
tumor multiplicity [9]: dose dependent decrease
